From ChEMBL document CHEMBL1125958, “Antihypertensive benzopyran-related potassium channel activators: a role for lipophilicity” (Bioorg Med Chem Lett, 1991)

Experiments:
[1] = system: Rattus norvegicus; assay: Compound was tested for mean arterial pressure in the spontaneously hypertensive rat, activity expressed as maximum % change in pressure after 3 hours of oral administration of 1.5 mg/Kg; type: functional, Artery
[2] = system: Rattus norvegicus; assay: Compound was tested for mean arterial pressure in the spontaneously hypertensive rat, activity expressed as mean arterial pressure before peroral administration of 0.17 mg/Kg dose; type: functional, Artery

SMILES	Change [1] [%]	Mean arterial blood pressure [2] [mmHg]
CC1(C)Oc2ccc(OC(F)(F)F)cc2[C@@H](NC(=O)c2ccco2)[C@@H]1O	-30	175
CC1(C)c2ccc(C#N)cc2[C@@H](NC(=O)c2ccco2)[C@@H]1O	-35	182
CC1(C)Oc2ccc(C#N)cc2[C@@H](N2Cc3ccccc3C2=O)[C@@H]1O	-23	173
CC1(C)Oc2ccccc2[C@@H](N2Cc3ccccc3C2=O)[C@@H]1O	-26	184
CC1(C)Oc2ccc(OC(F)(F)F)cc2[C@@H](N2Cc3ccccc3C2=O)[C@@H]1O [CELIKALIM]	-28	180
CC1(C)Oc2ccc(C#N)cc2[C@@H](N2CCCC2=O)[C@@H]1O [CROMAKALIM]	-28	171
